Results from US8283368B2, “Selective ligands for the dopamine 3 (D3) receptor and methods of using the same” (The Regents of the University of Michigan, priority 2008, dated 2012).
“Also recorded” adds a separate entry of the source. Where two headings read alike, the source gives them in different places.

Key:
[1] = molecular target: D1-like dopamine receptors; assay: [3H]SCH 23390 binding assay for D1-like dopamine receptors, rat brain membranes; conditions: single-site model, read-out: Ki ± SEM D1-like [3H]SCH23390
Description: (§1) All other Ki values are based on a single-site model.
(§2) Determination of D3 dopamine receptor affinity and selectivity were performed in membranes prepared from the brains of adult, male Sprague-Dawley rats (Harlan Sprague-Dawley, Indianapolis, Ind.). All compounds were dissolved in 100% ethanol at a concentration of 5 mM.

D2 receptor [2] = molecular target: T1, D2 receptor (Rattus norvegicus, UniProt P61169); assay: [3H]Spiperone binding assay for D2-like receptors, rat caudate-putamen membranes; design: from tissue; host or cells: rat caudate-putamen membranes; conditions: for Ki: rat brain
T1 sequence (P61169 whole entry): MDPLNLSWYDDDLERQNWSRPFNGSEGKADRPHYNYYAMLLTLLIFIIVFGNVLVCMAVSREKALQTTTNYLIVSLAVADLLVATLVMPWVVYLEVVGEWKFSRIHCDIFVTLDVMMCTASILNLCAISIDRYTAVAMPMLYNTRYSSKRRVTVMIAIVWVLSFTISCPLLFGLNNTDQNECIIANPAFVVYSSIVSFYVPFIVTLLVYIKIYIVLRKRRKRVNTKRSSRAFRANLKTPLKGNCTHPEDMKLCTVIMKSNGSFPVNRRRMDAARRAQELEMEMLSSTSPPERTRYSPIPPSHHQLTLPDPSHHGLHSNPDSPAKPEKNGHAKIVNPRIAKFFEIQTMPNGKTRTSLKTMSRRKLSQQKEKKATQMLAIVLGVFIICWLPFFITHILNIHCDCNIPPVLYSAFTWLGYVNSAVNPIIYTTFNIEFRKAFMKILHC
Description: as §1, §2
[^3H]Spiperone binding assays. […] Assays were performed using membranes prepared from rat caudate-putamen, which predominantly express the D2 subtype of D2-like receptors, and the final membrane homogenate concentration was 1.5 mg o.w.w./ml. The assay buffer was 50 mM Tris-HCl, 5 mM KCl, 2 mM MgCl2, and 2 mM CaCl2, pH 7.4 at 23° C.; the concentration of [^3H]spiperone (24 Ci/mmol; Amersham) was 0.2 nM; and the incubation time was 90 minutes at 23° C. Nonspecific binding was defined in the presence of 1 μM (+)-butaclamol.

D3 receptor = molecular target: T2, D3 receptor (Rattus norvegicus, UniProt P19020); assay: [3H]PD 128907 binding assay for D3 receptors, rat ventral striatum membranes; conditions: for less potent than compound 6 to the D3 receptor: Ki compared with compound 6; for Selectivity D1-like/D3 / Selectivity D2-like/D3: ratio of Ki values, Table 1
T2 construct: membranes prepared from the brains of adult, male Sprague-Dawley rats; from tissue; host or cells: rat ventral striatum (nucleus accumbens and olfactory tubercles) membranes
T2 sequence (P19020 whole entry): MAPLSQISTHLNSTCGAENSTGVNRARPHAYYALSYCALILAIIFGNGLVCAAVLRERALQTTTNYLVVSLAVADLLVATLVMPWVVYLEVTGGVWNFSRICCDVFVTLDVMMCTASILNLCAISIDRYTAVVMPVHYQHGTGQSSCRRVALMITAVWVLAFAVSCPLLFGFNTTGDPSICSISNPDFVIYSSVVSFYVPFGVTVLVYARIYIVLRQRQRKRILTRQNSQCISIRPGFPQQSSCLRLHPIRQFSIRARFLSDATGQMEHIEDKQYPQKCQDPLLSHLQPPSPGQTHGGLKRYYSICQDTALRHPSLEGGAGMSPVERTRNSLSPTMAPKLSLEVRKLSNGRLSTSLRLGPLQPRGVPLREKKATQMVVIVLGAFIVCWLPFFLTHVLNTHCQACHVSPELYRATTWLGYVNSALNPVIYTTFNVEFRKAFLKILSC
Description: as §1, §2
Rat ventral striatum (nucleus accumbens and olfactory tubercles) was prepared in assay buffer (50 mM Tris, 1 mM EDTA; pH 7.4 at 23° C.) to yield a final concentration of 10 mg original wet weight (o.w.w.)/ml. […] Nonspecific binding was defined by 1 μM spiperone. Assay tubes were incubated at 23° C. for 3 hours. The reaction was terminated by rapid vacuum filtration.

Aqueous solubility = assay type: physicochemical
D2 receptor [3] = molecular target: T1, D2 receptor; assay: In vivo hypothermia assay in rats (D2 agonist activity); design: compounds 5, 6, and 12 in yawning and hypothermia assays in rats; from tissue; host or cells: living rats (Harlan), core body temperature read-out; conditions: for in vivo functional activity at the D2 receptor: concluded from hypothermia in rats; for induction of hypothermia / changes in body temperature: rats, s.c.
Description: Recently, in vivo functional assays for the D3 and D2 receptors have been validated. (24,25). […] By employing these validated assays, compounds 5, 6, and 12 were evaluated for their in vivo functional activity at the D3 and D2 receptors.
(§3) Rats were purchased from Harlan (Indianapolis, Ind.) and housed three to a cage for yawning studies, and one to a cage for hypothermia studies. […] Yawning studies were performed as previously described (24,25), with yawning defined as a prolonged (about 1 second), wide opening of the mouth followed by a rapid closure. […] Yawning was recorded for 30 minutes after each injection. […] Yawns and changes in core body temperature are presented as the mean±standard error of the mean (SEM) with 8 (yawning) or 6 (hypothermia) rats per group.

D2 receptor [4] = molecular target: T1, D2 receptor; assay: Alteration of pramipexole induced hypothermia in rats; assay type: in vivo; design: compounds 5, 6, and 12 in yawning and hypothermia assays in rats; from tissue; host or cells: living rats (Harlan), core body temperature read-out; conditions: rats pretreated with 10.0 or 32.0 mg/kg
Description: as §3

[5] = background statement on known compounds; cited from earlier work
[6] = single-site model, read-out: Ki ± SEM D2 [3H]Spiperone
[7] = rat brain, single-site model, mean±SEM of three to five determinations, read-out: Ki ± SEM D3 [3H]PD128907
[8] = 2-site fit, high affinity component, read-out: Ki ± SEM D2 [3H]Spiperone, high affinity component (h)
[9] = 2-site fit, low affinity component, read-out: Ki ± SEM D2 [3H]Spiperone, low affinity component (1)

Compound	Ki [1] [nM]	Ki (D2 receptor [2]; [6]) [nM]	Ki (D3 receptor; [7]) [nM]	Selectivity D1-like/D3 (D3 receptor)	Selectivity D2-like/D3 (D3 receptor)	aqueous solubility (Aqueous solubility)	in vivo functional activity at the D2 receptor (D2 receptor [3])	induction of hypothermia / changes in body temperature (D2 receptor [3])	further results
CCCN(CC[C@H]1CC[C@H](NC(=O)C=Cc2ccccc2)CC1)[C@H]1CCc2nc(N)sc2C1 [Compound 12, Trans-N-(4-(2-(((S)-2-amino-4,5,6,7-tetrahydrobenzo[d]thiazol-6-yl)(propyl)amino)ethyl)cyclohexyl)cinnamamide]	–	330 ± 69	–	–	–	good aqueous solubility	no detectable agonist activity at the D2 receptor; also recorded: no detectable agonist or antagonist activity at the D2 receptor	failed to induce changes in body temperature	effect on induction of hypothermia by pramipexole (D2 receptor [4]): failed to alter the induction of hypothermia by pramipexole
COc1ccc2c(c1)CCC1CN(CCC3CCC(NC(=O)c4ccc5ccccc5c4)CC3)CCN21 (centres unmarked) [Compound 4, reference compound]	> 50000	> 10000	–	>5000	>1000	–	–	–	Ki (D3 receptor): 5.7 ± 0.4 nM; aqueous solubility, known compounds [5]: poor aqueous solubility
CCCN[C@H]1CCc2nc(N)sc2C1 [Compound 1, pramipexole, reference compound]	> 100000	–	–	–	–	–	D2 agonist at higher doses	induction of hypothermia occurring at higher doses	–
CCCN(CCCCNC(=O)c1ccc2ccccc2c1)[C@H]1CCc2nc(N)sc2C1 [Compound 5, (S)—N-(4-((2-amino-4,5,6,7-tetrahydrobenzo[d]thiazol-6-yl)(propyl)amino)butyl)-2-naphthamide]	–	–	0.043 ± 0.006	–	–	good aqueous solubility	full agonist at the D3 and D2 receptors in vivo	hypothermia was induced by compound 5 at higher doses	Ki (D2 receptor [2]; [8]): 2.7 ± 0.4 nM; Ki (D2 receptor [2]; [9]): 6700 ± 1500 nM
CCCN(CC[C@H]1CC[C@H](NC(=O)c2ccc3ccccc3c2)CC1)[C@H]1CCc2nc(N)sc2C1 [Compound 6, Trans-N-(4-(2-(((S)-2-amino-4,5,6,7-tetrahydrobenzo[d]thiazol-6-yl)(propyl)amino)ethyl)cyclohexyl)-2-naphthamide]	–	–	–	–	–	good aqueous solubility	no detectable agonist activity at the D2 receptor	failed to induce changes in body temperature	aqueous solubility (Aqueous solubility; dihydrochloride salt form): greater than 100 mg/ml

Further lines, with some results ahead:

Ki [1] [nM]	Ki (D2 receptor [2]; [6]) [nM]	Ki (D3 receptor; [7]) [nM]	Selectivity D1-like/D3 (D3 receptor)	Selectivity D2-like/D3 (D3 receptor)	aqueous solubility (Aqueous solubility)	Compound	in vivo functional activity at the D2 receptor (D2 receptor [3])	induction of hypothermia / changes in body temperature (D2 receptor [3])	further results
64000	670 ± 140	7.6	>8,000	88	–	Nc1nc2c(s1)C[C@@H](NCC[C@H]1CC[C@H](NC(=O)c3ccc4ccccc4c3)CC1)CC2 [Compound 10, Trans-N-(4-(2-((S)-2-amino-4,5,6,7-tetrahydrobenzo[d]thiazol-6-ylamino)ethyl)cyclohexyl)-2-naphthamide]	–	–	less potent than compound 6 to the D3 receptor (D3 receptor): 19 times
13000	345 ± 33	2.2 ± 0.1	>5,000	157	–	CC(C)CCN(CC[C@H]1CC[C@H](NC(=O)c2ccc3ccccc3c2)CC1)[C@H]1CCc2nc(N)sc2C1 [Compound 8, Trans-N-(4-(2-(((S)-2-amino-4,5,6,7-tetrahydrobenzo[d]thiazol-6-yl)(isopentyl)amino)ethyl)cyclohexyl)-2-naphthamide]	–	–	less potent than compound 6 to the D3 receptor (D3 receptor): 5 times
5400	–	0.74 ± 0.083	>7,000	74	–	CCCCN(CC[C@H]1CC[C@H](NC(=O)c2ccc3ccccc3c2)CC1)[C@H]1CCc2nc(N)sc2C1 [Compound 7, Trans-N-(4-(2-(((S)-2-amino-4,5,6,7-tetrahydrobenzo[d]thiazol-6-yl)(butyl)amino)ethyl)cyclohexyl)-2-naphthamide]	–	–	Ki (D2 receptor [2]; [8]): 55 ± 12 nM; Ki (D2 receptor [2]; [9]): 1300 ± 180 nM; less selectivity for the D3 receptor over the D2 receptor than compound 6 (D3 receptor; D2 high affinity binding component): ~10 fold
–	1200	23 ± 2.7	–	–	–	Nc1nc2c(s1)C[C@@H](N(CCC1CCCCC1)CC[C@H]1CC[C@H](NC(=O)c3ccc4ccccc4c3)CC1)CC2 [Compound 9, Trans-N-(-4-(2-(((S)-2-amino-4,5,6,7-tetrahydrobenzo[d]thiazol-6-yl)(2-cyclohexylethyl)amino)ethyl)cyclohexyl)-2-naphthamide]	–	–	less potent than compound 6 to the D2 receptor (D2 receptor [2]; Ki compared with compound 6): 3 times
–	68 ± 4.6	–	–	–	–	CCCN(CC[C@H]1CC[C@H](NC(=O)c2cc3ccccc3o2)CC1)[C@H]1CCc2nc(N)sc2C1 [Compound 11, Trans-N-(4-(2-(((S)-2-amino-4,5,6,7-tetrahydrobenzo[d]thiazol-6-yl)(propyl)amino)ethyl)cyclohexyl)benzofuran-2-carboxamide]	–	–	–
